# According to US20030224416A1, “Schizophrenia related gene” (priority 2002, published 2003):
# Tested on: Kv3.1 α-subunit mRNA
# Assay: Experiment 1: in situ hybridization of Kv3.1 α-subunit mRNA in brain, chronic PCP rat model of schizophrenia with antipsychotic co-treatment
# Format: in vivo
structure (smiles),measurement,setting,value
"CN1CCN(C2=Nc3ccc(F)cc3Nc3sc4ccccc4c32)CC1.O=C(O)/C=C\C(=O)O [Y-931, 8-fluoro-12-(4-methylpiperazin-1-yl)-6H-[l]benzothieno[2,3-b][1,5]benzo-diazepine monomaleate]",Kv3.1 α-subunit mRNA expression,"ACg, PCP + drug 0.3 mg/kg/day",15.36 ± 0.29 PSL/mm^2
same,Kv3.1 α-subunit mRNA expression,"ACg, PCP + drug 1 mg/kg/day",15.10 ± 0.92 PSL/mm^2
same,Kv3.1 α-subunit mRNA expression,"ACg, PCP + drug 3 mg/kg/day",15.40 ± 0.83 PSL/mm^2
same,Kv3.1 α-subunit mRNA expression,"ACg, PCP + drug 10 mg/kg/day",14.82 ± 0.74 PSL/mm^2
same,Kv3.1 α-subunit mRNA expression,"AcbC, PCP + drug 0.3 mg/kg/day",7.65 ± 0.40 PSL/mm^2
same,Kv3.1 α-subunit mRNA expression,"AcbC, PCP + drug 1 mg/kg/day",8.40 ± 0.63 PSL/mm^2
same,Kv3.1 α-subunit mRNA expression,"AcbC, PCP + drug 3 mg/kg/day",8.44 ± 0.43 PSL/mm^2
same,Kv3.1 α-subunit mRNA expression,"AcbC, PCP + drug 10 mg/kg/day",8.42 ± 0.53 PSL/mm^2
same,Kv3.1 α-subunit mRNA expression,"AcbS, PCP + drug 0.3 mg/kg/day",10.24 ± 0.64 PSL/mm^2
same,Kv3.1 α-subunit mRNA expression,"AcbS, PCP + drug 1 mg/kg/day",11.55 ± 0.50 PSL/mm^2
same,Kv3.1 α-subunit mRNA expression,"AcbS, PCP + drug 3 mg/kg/day",11.11 ± 0.27 PSL/mm^2
same,Kv3.1 α-subunit mRNA expression,"AcbS, PCP + drug 10 mg/kg/day",11.26 ± 0.67 PSL/mm^2
same,Kv3.1 α-subunit mRNA expression,"Au1, PCP + drug 0.3 mg/kg/day",17.02 ± 1.26 PSL/mm^2
same,Kv3.1 α-subunit mRNA expression,"Au1, PCP + drug 1 mg/kg/day",18.48 ± 1.36 PSL/mm^2
same,Kv3.1 α-subunit mRNA expression,"Au1, PCP + drug 3 mg/kg/day",16.76 ± 0.32 PSL/mm^2
same,Kv3.1 α-subunit mRNA expression,"Au1, PCP + drug 10 mg/kg/day",17.98 ± 0.68 PSL/mm^2
same,Kv3.1 α-subunit mRNA expression,"CA1pd, PCP + drug 0.3 mg/kg/day",16.80 ± 1.23 PSL/mm^2
same,Kv3.1 α-subunit mRNA expression,"CA1pd, PCP + drug 1 mg/kg/day",18.34 ± 0.91 PSL/mm^2
same,Kv3.1 α-subunit mRNA expression,"CA1pd, PCP + drug 3 mg/kg/day",16.47 ± 0.98 PSL/mm^2
same,Kv3.1 α-subunit mRNA expression,"CA1pd, PCP + drug 10 mg/kg/day",19.18 ± 2.03 PSL/mm^2
same,Kv3.1 α-subunit mRNA expression,"CA2pd, PCP + drug 0.3 mg/kg/day",24.07 ± 1.74 PSL/mm^2
same,Kv3.1 α-subunit mRNA expression,"CA2pd, PCP + drug 1 mg/kg/day",20.07 ± 1.71 PSL/mm^2
same,Kv3.1 α-subunit mRNA expression,"CA2pd, PCP + drug 3 mg/kg/day",21.47 ± 2.23 PSL/mm^2
same,Kv3.1 α-subunit mRNA expression,"CA2pd, PCP + drug 10 mg/kg/day",22.31 ± 1.57 PSL/mm^2
same,Kv3.1 α-subunit mRNA expression,"CA3pd, PCP + drug 0.3 mg/kg/day",34.10 ± 1.52 PSL/mm^2
same,Kv3.1 α-subunit mRNA expression,"CA3pd, PCP + drug 1 mg/kg/day",33.99 ± 3.29 PSL/mm^2
same,Kv3.1 α-subunit mRNA expression,"CA3pd, PCP + drug 3 mg/kg/day",34.72 ± 1.24 PSL/mm^2
same,Kv3.1 α-subunit mRNA expression,"CA3pd, PCP + drug 10 mg/kg/day",33.90 ± 2.52 PSL/mm^2
same,Kv3.1 α-subunit mRNA expression,"DGgd, PCP + drug 0.3 mg/kg/day",38.38 ± 1.53 PSL/mm^2
same,Kv3.1 α-subunit mRNA expression,"DGgd, PCP + drug 1 mg/kg/day",39.21 ± 1.75 PSL/mm^2
same,Kv3.1 α-subunit mRNA expression,"DGgd, PCP + drug 3 mg/kg/day",36.93 ± 2.53 PSL/mm^2
same,Kv3.1 α-subunit mRNA expression,"DGgd, PCP + drug 10 mg/kg/day",36.11 ± 2.06 PSL/mm^2
same,Kv3.1 α-subunit mRNA expression,"DLStr, PCP + drug 0.3 mg/kg/day",6.55 ± 0.53 PSL/mm^2
same,Kv3.1 α-subunit mRNA expression,"DLStr, PCP + drug 1 mg/kg/day",5.99 ± 0.96 PSL/mm^2
same,Kv3.1 α-subunit mRNA expression,"DLStr, PCP + drug 3 mg/kg/day",7.13 ± 0.70 PSL/mm^2
same,Kv3.1 α-subunit mRNA expression,"DLStr, PCP + drug 10 mg/kg/day",7.46 ± 0.86 PSL/mm^2
same,Kv3.1 α-subunit mRNA expression,"IL, PCP + drug 0.3 mg/kg/day",11.64 ± 0.40 PSL/mm^2
same,Kv3.1 α-subunit mRNA expression,"IL, PCP + drug 1 mg/kg/day",11.33 ± 0.60 PSL/mm^2
same,Kv3.1 α-subunit mRNA expression,"IL, PCP + drug 3 mg/kg/day",12.91 ± 0.38 PSL/mm^2
same,Kv3.1 α-subunit mRNA expression,"IL, PCP + drug 10 mg/kg/day",11.55 ± 0.45 PSL/mm^2
same,Kv3.1 α-subunit mRNA expression,"IO, PCP + drug 0.3 mg/kg/day",17.52 ± 0.95 PSL/mm^2
same,Kv3.1 α-subunit mRNA expression,"IO, PCP + drug 1 mg/kg/day",15.49 ± 0.30 PSL/mm^2
same,Kv3.1 α-subunit mRNA expression,"IO, PCP + drug 3 mg/kg/day",17.52 ± 0.36 PSL/mm^2
same,Kv3.1 α-subunit mRNA expression,"IO, PCP + drug 10 mg/kg/day",15.30 ± 0.62 PSL/mm^2
same,Kv3.1 α-subunit mRNA expression,"M1, PCP + drug 0.3 mg/kg/day",15.33 ± 0.38 PSL/mm^2
same,Kv3.1 α-subunit mRNA expression,"M1, PCP + drug 1 mg/kg/day",14.81 ± 0.80 PSL/mm^2
same,Kv3.1 α-subunit mRNA expression,"M1, PCP + drug 3 mg/kg/day",17.01 ± 0.75 PSL/mm^2
same,Kv3.1 α-subunit mRNA expression,"M1, PCP + drug 10 mg/kg/day",16.51 ± 0.67 PSL/mm^2
same,Kv3.1 α-subunit mRNA expression,"M2, PCP + drug 0.3 mg/kg/day",13.23 ± 0.29 PSL/mm^2
same,Kv3.1 α-subunit mRNA expression,"M2, PCP + drug 1 mg/kg/day",13.10 ± 0.57 PSL/mm^2
same,Kv3.1 α-subunit mRNA expression,"M2, PCP + drug 3 mg/kg/day",14.25 ± 0.81 PSL/mm^2
same,Kv3.1 α-subunit mRNA expression,"M2, PCP + drug 10 mg/kg/day",13.04 ± 0.53 PSL/mm^2
same,Kv3.1 α-subunit mRNA expression,"MG, PCP + drug 0.3 mg/kg/day",26.82 ± 1.55 PSL/mm^2
same,Kv3.1 α-subunit mRNA expression,"MG, PCP + drug 1 mg/kg/day",26.36 ± 0.95 PSL/mm^2
same,Kv3.1 α-subunit mRNA expression,"MG, PCP + drug 3 mg/kg/day",26.75 ± 2.02 PSL/mm^2
same,Kv3.1 α-subunit mRNA expression,"MG, PCP + drug 10 mg/kg/day",27.36 ± 1.86 PSL/mm^2
same,Kv3.1 α-subunit mRNA expression,"MM, PCP + drug 0.3 mg/kg/day",25.02 ± 2.54 PSL/mm^2
same,Kv3.1 α-subunit mRNA expression,"MM, PCP + drug 1 mg/kg/day",24.82 ± 0.93 PSL/mm^2
same,Kv3.1 α-subunit mRNA expression,"MM, PCP + drug 3 mg/kg/day",20.92 ± 0.93 PSL/mm^2
same,Kv3.1 α-subunit mRNA expression,"MM, PCP + drug 10 mg/kg/day",28.12 ± 1.89 PSL/mm^2
same,Kv3.1 α-subunit mRNA expression,"Pir, PCP + drug 0.3 mg/kg/day",38.95 ± 2.38 PSL/mm^2
same,Kv3.1 α-subunit mRNA expression,"Pir, PCP + drug 1 mg/kg/day",43.16 ± 2.76 PSL/mm^2
same,Kv3.1 α-subunit mRNA expression,"Pir, PCP + drug 3 mg/kg/day",38.15 ± 3.31 PSL/mm^2
same,Kv3.1 α-subunit mRNA expression,"Pir, PCP + drug 10 mg/kg/day",41.69 ± 1.90 PSL/mm^2
same,Kv3.1 α-subunit mRNA expression,"PrL, PCP + drug 0.3 mg/kg/day",12.76 PSL/mm^2
same,Kv3.1 α-subunit mRNA expression,"PrL, PCP + drug 1 mg/kg/day",12.17 PSL/mm^2
same,Kv3.1 α-subunit mRNA expression,"PrL, PCP + drug 3 mg/kg/day",12.93 PSL/mm^2
same,Kv3.1 α-subunit mRNA expression,"PrL, PCP + drug 10 mg/kg/day",12.55 PSL/mm^2
same,effect on PCP-induced decrease in Kv3.1 α-subunit mRNA expression,"PrL, all doses administered (0.3-10 mg/kg/day)",significantly reversed the PCP-induced decrease back to control levels
same,Kv3.1 α-subunit mRNA expression,"RSa, PCP + drug 0.3 mg/kg/day",19.22 ± 1.40 PSL/mm^2
same,Kv3.1 α-subunit mRNA expression,"RSa, PCP + drug 1 mg/kg/day",18.90 ± 1.03 PSL/mm^2
same,Kv3.1 α-subunit mRNA expression,"RSa, PCP + drug 3 mg/kg/day",17.36 ± 1.55 PSL/mm^2
same,Kv3.1 α-subunit mRNA expression,"RSa, PCP + drug 10 mg/kg/day",18.04 ± 0.87 PSL/mm^2
same,Kv3.1 α-subunit mRNA expression,"RSg, PCP + drug 0.3 mg/kg/day",20.89 ± 0.95 PSL/mm^2
same,Kv3.1 α-subunit mRNA expression,"RSg, PCP + drug 1 mg/kg/day",19.99 ± 0.59 PSL/mm^2
same,Kv3.1 α-subunit mRNA expression,"RSg, PCP + drug 3 mg/kg/day",20.73 ± 1.22 PSL/mm^2
same,Kv3.1 α-subunit mRNA expression,"RSg, PCP + drug 10 mg/kg/day",19.48 ± 0.64 PSL/mm^2
same,Kv3.1 α-subunit mRNA expression,"SN, PCP + drug 0.3 mg/kg/day",11.66 ± 0.91 PSL/mm^2
same,Kv3.1 α-subunit mRNA expression,"SN, PCP + drug 1 mg/kg/day",12.98 ± 1.12 PSL/mm^2
same,Kv3.1 α-subunit mRNA expression,"SN, PCP + drug 3 mg/kg/day",13.04 ± 1.29 PSL/mm^2
same,Kv3.1 α-subunit mRNA expression,"SN, PCP + drug 10 mg/kg/day",15.34 ± 1.58 PSL/mm^2
same,Kv3.1 α-subunit mRNA expression,"VMStr, PCP + drug 0.3 mg/kg/day",6.75 ± 0.50 PSL/mm^2
same,Kv3.1 α-subunit mRNA expression,"VMStr, PCP + drug 1 mg/kg/day",7.18 ± 0.71 PSL/mm^2
same,Kv3.1 α-subunit mRNA expression,"VMStr, PCP + drug 3 mg/kg/day",7.69 ± 0.35 PSL/mm^2
same,Kv3.1 α-subunit mRNA expression,"VMStr, PCP + drug 10 mg/kg/day",7.23 ± 0.26 PSL/mm^2
same,Kv3.1 α-subunit mRNA expression,"VO, PCP + drug 0.3 mg/kg/day",19.12 ± 0.74 PSL/mm^2
same,Kv3.1 α-subunit mRNA expression,"VO, PCP + drug 1 mg/kg/day",17.81 ± 1.08 PSL/mm^2
same,Kv3.1 α-subunit mRNA expression,"VO, PCP + drug 3 mg/kg/day",19.32 ± 0.63 PSL/mm^2
same,Kv3.1 α-subunit mRNA expression,"VO, PCP + drug 10 mg/kg/day",18.51 ± 1.08 PSL/mm^2
same,effect on PCP-induced decreases in Kv3.1 α-subunit mRNA expression (summary),chronic co-administration with PCP,reversed
same,effect on PCP-induced decrease in Kv3.1 α-subunit mRNA expression,dRt and DLStr,neither Y-931 nor olanzapine significantly modulated the PCP-induced effect
same,Kv3.1 α-subunit mRNA expression,"dRt, PCP + drug 0.3 mg/kg/day",54.94 ± 1.99 PSL/mm^2
same,Kv3.1 α-subunit mRNA expression,"dRt, PCP + drug 1 mg/kg/day",51.68 ± 2.34 PSL/mm^2
same,Kv3.1 α-subunit mRNA expression,"dRt, PCP + drug 3 mg/kg/day",53.38 ± 2.99 PSL/mm^2
same,Kv3.1 α-subunit mRNA expression,"dRt, PCP + drug 10 mg/kg/day",54.81 ± 1.90 PSL/mm^2
same,Kv3.1 α-subunit mRNA expression,"vRt, PCP + drug 0.3 mg/kg/day",46.91 ± 2.73 PSL/mm^2
same,Kv3.1 α-subunit mRNA expression,"vRt, PCP + drug 1 mg/kg/day",47.18 ± 2.10 PSL/mm^2
same,Kv3.1 α-subunit mRNA expression,"vRt, PCP + drug 3 mg/kg/day",52.57 ± 2.00 PSL/mm^2
same,Kv3.1 α-subunit mRNA expression,"vRt, PCP + drug 10 mg/kg/day",49.70 ± 2.76 PSL/mm^2
